{"source": "patent US8784899B2", "about": "“Compositions and methods for cancer treatment” (priority 2005, dated 2014)", "type_in_all_cases": "cell-based", "key": {"NB4 cells": {"test_system": "NB4 cells", "test": "Growth assay, viable cells by trypan blue exclusion, NB4", "details": "NB4, 100 μM trolox alone, any time point", "method": "NB4, IM9 and AsR2 cells were seeded at 1×10^5 cells/ml in 24-well plates. Cells were treated with various concentrations of As2O3 or doxorubicin, alone or in combination with 100 μM trolox for six days. Viable cells were counted by trypan blue exclusion on day 1, 3 and 6. All cells were maintained at a density lower than 1×10^6 cells/ml through dilution as required, and media +/− treatment was replaced every third day. MCF-7, MDA-231 and T47D were seeded in 24-well plates at a density of 4000 cells/well. The next day, fresh media containing As2O3+/− trolox was added. On the days indicated, cells were fixed in 10% trichloroacetic acid and subsequently stained with sulforhodamine B (SRB). Bound SRB was solubilized in 10 mM unbuffered Tris and optical density was measured at 570 nm in a microplate reader."}, "NB4, AsR2 and IM9 cells": {"test_system": "NB4, AsR2 and IM9 cells", "test": "Apoptosis by propidium iodide staining and flow cytometry", "details": "48 hours, all concentrations of arsenic tested", "method": "Quantitation of apoptotic cells was performed as previously described (Hardin et al. J. Immunol. Methods. 1992; 154:99-107). Cells were treated, washed in buffer (PBS/5% FBS/0.01 M NaN3) at 4° C., pelleted, and resuspended in 0.5 ml of hypotonic fluorochrome solution containing 50 μg/ml propidium iodide (PI), 0.1% sodium citrate, and 0.1% Triton X-100™. Fluorescence was measured on a Becton-Dickinson™ FACS Calibur. Cells undergoing DNA fragmentation and apoptosis (those in which PI fluorescence was weaker than the typical G0-G1 cell cycle peak) were quantified using CellQUEST™ software.\nTo evaluate whether the growth inhibitory effect observed upon combined treatment of As2O3 and trolox in NB4, AsR2 and IM9 cells was due to the induction of apoptosis, cells were treated for 48 hours, subsequently stained with PI and analyzed by flow cytometry. […] To confirm an enhanced induction of apoptotic death, FITC-labeled Annexin V, which detects phosphatidylserine residues appearing on the external surface of early apoptotic cells, was used. Consistent with the increase in the subG0 subpopulation after PI staining, trolox augmented the percentage of cells positive for Annexin V (FIG. 2B lower panels). To further confirm the induction of apoptosis by the combination of As2O3 and trolox, we evaluated caspase 3 activation and PARP cleavage. […] Similar results were obtained with AsR2 and IM9 cells."}, "Heme oxygenase-1 (HO-1)": {"test_system": "Heme oxygenase-1 (HO-1)", "test": "HO-1 protein levels by Western blot", "details": "NB4, IM9 and AsR2 cells, 24 hours", "method": "Cell extracts were washed with cold PBS and resuspended in 0.1 ml lysis buffer (5 mM NaH2PO4, 1 mM DTT, 10% glycerol, 1 mM PMSF, 10 μg/ml each aprotinin and leupeptin, pH 7.4) at 4° C. Extracts were centrifuged at 14,000 rpm at 4° C., and supernatants were transferred to fresh tubes. Protein concentration was determined with the Bio-Rad™ protein assay (Bio-Rad, Mississauga, Ontario, Canada). To detect HO-1 or PARP, 50 μg of protein was added to an equal volume of 2× sample buffer and run on a 10% SDS-polyacrylamide gel. Proteins were transferred to nitrocellulose membranes (Bio-Rad), stained with Ponceau S in 5% acetic acid to ensure equal protein loading, and blocked with 5% milk in PBS containing 0.5% Triton X-100™ for 1 hour at room temperature. The membrane was hybridized overnight at 4° C. with antibody against PARP (1:1000; Oncogene) or 3 hours with an antibody against HO-1 (1:1000; StressGen). Following three washes with PBS and 0.5% Triton X-100™, blots were incubated with a goat anti-rabbit antibody (1:10,000; PharMingen) for one hour at room temperature. Bands were visualized by enhanced chemiluminescence (Amersham Pharmacia Biotech, Baie d'Urfe, Quebec, Canada). Immunostaining for β-actin was used to confirm equal protein loading. Immune complex kinase assays for c-jun kinase activity were performed as previously described (Davison et al. Blood. 2004; 103: 3496-3502)."}, "Normal human PBMC": {"test_system": "Normal human PBMC", "test": "Colony forming unit assay of peripheral blood mononuclear cells", "method": "Peripheral blood mononuclear cells (PBMC) were obtained from two healthy normal donors after obtaining informed consent and were collected into tubes containing 7.2 mg K2EDTA. The blood was diluted 1:3 in PBS, layered onto an equal volume of Ficoll-Plaque™ PLUS (Amershan Biosciences, Piscataway, N.J.) and centrifuged at 1500 rpm for 30 minutes. The mononuclear cell layer was collected and washed twice in PBS. Methylcellulose media was prepared by combining IMDM, 30% FBS, 1% bovine serum albumin, 10^−4M 2-mercaptoethanol, 2 mM L-glutamine, 0.1U penicillin, 0.1 μg/ml streptomycin, granulocyte-macrophage colony-stimulating factor (GM-CSF; 10 ng/ml), interleukin-3 (IL-3; 10 ng/ml0) and erythropoietin (EPO; 3U/ml). PBMC were seeded in this media at a concentration of 300,000 cells/ml and treated with or without As2O3, trolox or the combination. Cultures were performed in triplicate in 35 mm^2 dishes and incubated at 37° C. in 4% CO2. Colonies derived from […] (BFU-E) and CFU-GM were counted on day 7 and 13."}}}
{"molecule": "Cc1c(C)c2c(c(C)c1O)CCC(C)(C(=O)O)O2", "note": "(stereo not shown) [trolox, Trolox]", "values": [{"measurement": "effect on cell number", "setting": "NB4 cells", "result": "no effect on cell number"}, {"measurement": "apoptosis (PI staining)", "setting": "NB4, AsR2 and IM9 cells", "result": "no effect on the apoptotic rate"}, {"measurement": "HO-1 protein induction", "setting": "Heme oxygenase-1 (HO-1)", "result": "not detected"}, {"measurement": "colony formation (CFU-GM, BFU-E, CFU-E)", "setting": "Normal human PBMC", "result": "did not inhibit colony formation"}]}
